Assay results from PMC4315428 (PLoS ONE, 2015).

Tests used:
[1] = system: tetrodotoxin-sensitive (TTX-S) sodium channels; details: read-out: IC50 value, TTX-S voltage-gated sodium channels; cited from earlier work
[2] = system: T-type Ca^2+ channel; type: cell-based, rat (Sprague-Dawley); details: 10 μM
[3] = system: L-type Ca^2+ channel; type: cell-based, rat (Sprague-Dawley); details: 10 μM

Hainantoxin-IV [HNTX-IV]
IC50 [1]: 34 nM | effect on Ca^2+ currents (T-type) [2]: neither native HNTX-IV (Fig. 8A, 8B) nor rHNTX-IV (Fig. 8C, 8D) could cause obvious changes | effect on Ca^2+ currents (L-type) [3]: neither native HNTX-IV (Fig. 8A, 8B) nor rHNTX-IV (Fig. 8C, 8D) could cause obvious changes
